Species: Rattus norvegicus
Assay: DrugMatrix - Regimen: Daily Repeat
Assay type: toxicity, organism-based, Sprague-Dawley
Parameters: regimen Daily Repeat, gender Male, age 6-8 weeks
Conditions: in vivo, po, route oral GAVAGE, vehicle 100 % WATER; for ABSOLUTE BASOPHIL / ABSOLUTE EOSINOPHIL / ABSOLUTE LYMPHOCYTE / ABSOLUTE MONOCYTE / ABSOLUTE SEGMENTED NEUTROPHIL / BASOPHIL / EOSINOPHIL / ERYTHROCYTE COUNT / HEMATOCRIT / HEMOGLOBIN / LEUKOCYTE COUNT / LYMPHOCYTE / MEAN CORPUSCULAR HEMOGLOBIN / MEAN CORPUSCULAR HEMOGLOBIN CONCENTRATION / MEAN CORPUSCULAR VOLUME / MONOCYTE / NEUTROPHIL / NUCLEATED RED BLOOD CELLS / PLATELET COUNT: tissue Blood; for ALANINE AMINOTRANSFERASE / ALBUMIN / ALKALINE PHOSPHATASE / ASPARTATE AMINOTRANSFERASE / BLOOD UREA NITROGEN / CARBON DIOXIDE / CHLORIDE / CHOLESTEROL / CREATINE PHOSPHOKINASE / CREATININE / GLUCOSE / LACTATE DEHYDROGENASE / LIPASE / PHOSPHORUS / POTASSIUM / SODIUM / TOTAL BILIRUBIN / TOTAL PROTEIN / URIC ACID: tissue Plasma
[1] = 100 mg/kg, 120 h, dose level Low, time 5 day
[2] = 750 mg/kg, 72 h, dose level High, time 3 day
[3] = 750 mg/kg, 120 h, dose level High, time 5 day

## NC(=O)c1cccnc1 [NIACINAMIDE]
[1]
  ABSOLUTE BASOPHIL: 0 CELLS/uL
  ABSOLUTE EOSINOPHIL: 0 CELLS/uL
  ABSOLUTE LYMPHOCYTE: 16541 CELLS/uL
  ABSOLUTE MONOCYTE: 560 CELLS/uL
  ABSOLUTE SEGMENTED NEUTROPHIL: 1799 CELLS/uL
  BASOPHIL: 0%
  EOSINOPHIL: 0%
  ERYTHROCYTE COUNT: 5.76 x10E6/uL
  HEMATOCRIT: 36.2%
  HEMOGLOBIN: 13.57 G/DL
  LEUKOCYTE COUNT: 18.9 x10E3/uL
  LYMPHOCYTE: 87.67%
  MEAN CORPUSCULAR HEMOGLOBIN: 23.57 pg
  MEAN CORPUSCULAR HEMOGLOBIN CONCENTRATION: 37.47 G/DL
  MEAN CORPUSCULAR VOLUME: 62.9 fL
  MONOCYTE: 3%
  NEUTROPHIL: 9.33%
  NUCLEATED RED BLOOD CELLS: 0 /100WBC
  PLATELET COUNT: 1257.67 x10E3/uL
  ALANINE AMINOTRANSFERASE: 69.67 u/L
  ALBUMIN: 4.27 G/DL
  ALKALINE PHOSPHATASE: 376.67 u/L
  ASPARTATE AMINOTRANSFERASE: 99.33 u/L
  BLOOD UREA NITROGEN: 17 mg/dL
  CARBON DIOXIDE: 24.33 mmol/L
  CHLORIDE: 102.67 MEQ/L
  CHOLESTEROL: 67.67 mg/dL
  CREATINE PHOSPHOKINASE: 270.33 u/L
  CREATININE: 0.34 mg/dL
  GLUCOSE: 140.67 mg/dL
  LACTATE DEHYDROGENASE: 278 u/L
  LIPASE: 10.67 u/L
  PHOSPHORUS: 13.13 mg/dL
  POTASSIUM: 6.68 MEQ/L
  SODIUM: 145.57 MEQ/L
  TOTAL BILIRUBIN: 0.2 mg/dL
  TOTAL PROTEIN: 6.03 G/DL
  URIC ACID: 1.6 mg/dL
[2]
  ABSOLUTE BASOPHIL: 0 CELLS/uL
  ABSOLUTE EOSINOPHIL: 108.33 CELLS/uL
  ABSOLUTE LYMPHOCYTE: 16413 CELLS/uL
  ABSOLUTE MONOCYTE: 47.67 CELLS/uL
  ABSOLUTE SEGMENTED NEUTROPHIL: 1431 CELLS/uL
  BASOPHIL: 0%
  EOSINOPHIL: 0.67%
  ERYTHROCYTE COUNT: 6.31 x10E6/uL
  HEMATOCRIT: 40.5%
  HEMOGLOBIN: 14.57 G/DL
  LEUKOCYTE COUNT: 18 x10E3/uL
  LYMPHOCYTE: 91%
  MEAN CORPUSCULAR HEMOGLOBIN: 23.2 pg
  MEAN CORPUSCULAR HEMOGLOBIN CONCENTRATION: 36 G/DL
  MEAN CORPUSCULAR VOLUME: 64.37 fL
  MONOCYTE: 0.33%
  NEUTROPHIL: 8%
  NUCLEATED RED BLOOD CELLS: 0 /100WBC
  PLATELET COUNT: 1228.67 x10E3/uL
  ALANINE AMINOTRANSFERASE: 84 u/L
  ALBUMIN: 4.57 G/DL
  ALKALINE PHOSPHATASE: 402 u/L
  ASPARTATE AMINOTRANSFERASE: 97.33 u/L
  BLOOD UREA NITROGEN: 17 mg/dL
  CARBON DIOXIDE: 27.33 mmol/L
  CHLORIDE: 101 MEQ/L
  CHOLESTEROL: 85 mg/dL
  CREATINE PHOSPHOKINASE: 304.67 u/L
  CREATININE: 0.23 mg/dL
  GLUCOSE: 150.67 mg/dL
  LACTATE DEHYDROGENASE: 174.67 u/L
  LIPASE: 11 u/L
  PHOSPHORUS: 10.23 mg/dL
  POTASSIUM: 6.7 MEQ/L
  SODIUM: 143.83 MEQ/L
  TOTAL BILIRUBIN: 0.2 mg/dL
  TOTAL PROTEIN: 6.17 G/DL
  URIC ACID: 1.8 mg/dL
[3]
  ABSOLUTE BASOPHIL: 0 CELLS/uL
  ABSOLUTE EOSINOPHIL: 45.33 CELLS/uL
  ABSOLUTE LYMPHOCYTE: 12211.67 CELLS/uL
  ABSOLUTE MONOCYTE: 352 CELLS/uL
  ABSOLUTE SEGMENTED NEUTROPHIL: 1824.33 CELLS/uL
  BASOPHIL: 0%
  EOSINOPHIL: 0.33%
  ERYTHROCYTE COUNT: 5.73 x10E6/uL
  HEMATOCRIT: 36.63%
  HEMOGLOBIN: 13.6 G/DL
  LEUKOCYTE COUNT: 14.43 x10E3/uL
  LYMPHOCYTE: 85.33%
  MEAN CORPUSCULAR HEMOGLOBIN: 23.77 pg
  MEAN CORPUSCULAR HEMOGLOBIN CONCENTRATION: 37.13 G/DL
  MEAN CORPUSCULAR VOLUME: 63.93 fL
  MONOCYTE: 2.33%
  NEUTROPHIL: 12%
  NUCLEATED RED BLOOD CELLS: 0 /100WBC
  PLATELET COUNT: 1227.33 x10E3/uL
  ALANINE AMINOTRANSFERASE: 71.67 u/L
  ALBUMIN: 4.53 G/DL
  ALKALINE PHOSPHATASE: 405.67 u/L
  ASPARTATE AMINOTRANSFERASE: 97 u/L
  BLOOD UREA NITROGEN: 18 mg/dL
  CARBON DIOXIDE: 28.67 mmol/L
  CHLORIDE: 101.67 MEQ/L
  CHOLESTEROL: 92 mg/dL
  CREATINE PHOSPHOKINASE: 216.33 u/L
  CREATININE: 0.2 mg/dL
  GLUCOSE: 160.33 mg/dL
  LACTATE DEHYDROGENASE: 82 u/L
  LIPASE: 11 u/L
  PHOSPHORUS: 10.6 mg/dL
  POTASSIUM: 5.82 MEQ/L
  SODIUM: 147.1 MEQ/L
  TOTAL BILIRUBIN: 0.2 mg/dL
  TOTAL PROTEIN: 6.33 G/DL
  URIC ACID: 1.3 mg/dL
